The values that follow come from patent US20230124720A1, “APPLICATION OF ACRIDINEDIONE COMPOUND IN PREPARATION OF ANTI-DIABETIC DRUGS” (THE FOURTH MILITARY MEDICAL UNIVERSITY, priority 2020, published 2023).

Each structure is given as a SMILES string.

Data set [1] deals with T1, HEK-293T cells stably overexpressing GPR40 (Homo sapiens, UniProt O14842).
T1 construct: expressed in transfected cells; host or cells: HEK-293T
Kind of data set: GPR40 agonistic activity assay (Fluo-4 AM fluorescence, Flexstation). Type of data set: cell-based.
Description: There were triplicate wells for each group, and a Flexstation instrument was used for detecting and reading fluorescence values. Each compound dilution concentration was: 200 μmol/L, 100 μmol/L, 50 μmol/L, 10 μmol/L, 5 μmol/L.
EC50 value for each compound was calculated from the measured fluorescence value according to the following formula:
Relative agonism ratio=(fluorescence value of test compound-fluorescence value of negative control)/(fluorescence value of agonist positive control-fluorescence value of negative control)*100%;

In data set [2] the test system is MIN6 cells. In words: Glucose-stimulated insulin secretion in MIN6 cells (GSIS). Type of data set: cell-based, mouse. Here is the method: MIN6 cells were seeded in a 24-well plate at an appropriate concentration, and after continued culture until cell confluence exceeded 80%, administration was carried out in the following groups: normal control group (Con), ADD group (ADD-16 was administered at a concentration of 100 μmol/L, 30 μmol/L, 10 μmol/L, 3 μmol/L, 1 μmol/L, 0.3 μmol/L, respectively), TAK875 group (administered at a concentration of 10 μmol/L, 3 μmol/L, 1 μmol/L, respectively), with 6 replicates per group. Incubation was continued for 24 h after group dosing, media was aspirated and gently rinsed 2 times with a sugar-free KRB buffer. After rinsing, the sugar-free KRB buffer was added and incubated at 37° C. for 10 min. At the end of the incubation, the buffer was aspirated and each well was exhausted as much as possible. Each group was dosed with 16.7 mmol/L glucose in a KRB buffer and incubated at 37° C. for 1 hour. All media in the wells was aspirated after 1 h, centrifuged at 2000 rmp/min for 20 min, and the supernatant was collected and stored at −20° C. The insulin content was measured for each group following the instructions of the mouse insulinase ELISA assay kit.
Insulinase ELISA assay: the supernatant of each set of media was taken and processed according to the procedure of Table 1:
The final mixture was mixed well with shaking and the OD was read on a microplate reader at 450 nm. The insulin content of each group was calculated.

Data set [3] concerns MIN6 cells. In words: Cytotoxicity / growth of MIN6 cells (FIG. 1A). The data set is classed as cell-based, mouse. The following applies: 100 μmol/L.
The next data set concerns STZ-induced T2DM rats. In words: Serum insulin and HOMA-IR in T2DM rats. The data set is classed as in vivo, rat. The method, then:
150 male SD rats, housed in cages in a clean constant temperature (23±2° C.) and humidity (55±10%) animal house, were manually adjusted on a daily 12 h/12 h diurnal light cycle with free access to water. After 3 days of adaptive feeding, 150 rats were randomly divided into normal and model groups. The normal (Con, n=15) group of rats remained on raw chow and the model group (n=135) of rats were given high fat high sugar chow. All rats were fed twice daily and the amount of feed was adjusted as needed to ensure adequate feed. After 8 weeks of group feeding, the model group rats were given an intraperitoneal injection of 25 mg/kg STZ solution with a 12 h fast prior to injection. […] At the same time, the Con group was daily administrated with a 0.5% CMC-Na solution by gavage, the body weight and postprandial blood sugar (PBG) of each group of rats were monitored weekly. Relevant indicators of lipid metabolism were measured after the end of the study.
In T2DM rat serum insulin assay, fasting serum insulin levels in rats were measured by a commercial insulin ELISA kit. The extent of body insulin resistance was assessed using the Insulin Resistance Index, which was calculated using the Homeostasis model assessment (HOMA-IR) according to literature reports, i.e., HOMA-IR=(fasting glucose×fasting insulin)/22.5.

The subject of data set [4] is MIN6 cells. Kind of data set: Insulin secretion in PA-induced insulin-resistant MIN6 cells. The data set is classed as cell-based, mouse. The method, then: MIN6 cells were seeded in 24-well plates and cultured as described in step 2.1 to a cell confluency of more than 80% and administrated in the following groups, with 12 replicates per group: (1) normal control group (Con): cultured with blank 1640 medium; (2) insulin resistance model panel (IR): treated with 0.125 mmol/L PA for 24 h to induce establishment of an insulin resistance model; (3) ADD-16 administration group (ADD): 10 μmol/L ADD-16 intervention was administered for 24 h after successful establishment of the insulin resistance model; (4) TAK875 control group (TAK875): 10 μmol/L TAK875 was administered as a positive control drug intervention for 24 h after successful establishment of the insulin resistance model; (5) metformin control group (MT): 10 mmol/L metformin was administered as a positive control drug intervention for 24 h after successful establishment of the insulin resistance model; (6) sitagliptin control group (ST): 10 μmol/L sitagliptin was administered as a positive control drug intervention for 24 h after successful establishment of the insulin resistance model. After the group administration, the medium was aspirated and washed 2 times with a KRB buffer without sugar, followed by the addition of the KRB buffer without sugar. […] After incubation at 37° C. for 1 h, all the medium in the wells was aspirated and centrifuged at 2000 rmp/min for 20 min, and the supernatant was collected and stored at −20° C. The insulin content was measured for each group.

The test system of a further data set is ZDF rat islet tissue. In words: Western Blot of insulin signaling related molecules in ZDF rat islet tissue. The following applies: compared to TD group, P<0.001, most pronounced at 10 mg/kg. The data set is classed as in vivo. (Immunoblotting shows a protein as a band on a membrane.)

T1 sequence (O14842 whole entry): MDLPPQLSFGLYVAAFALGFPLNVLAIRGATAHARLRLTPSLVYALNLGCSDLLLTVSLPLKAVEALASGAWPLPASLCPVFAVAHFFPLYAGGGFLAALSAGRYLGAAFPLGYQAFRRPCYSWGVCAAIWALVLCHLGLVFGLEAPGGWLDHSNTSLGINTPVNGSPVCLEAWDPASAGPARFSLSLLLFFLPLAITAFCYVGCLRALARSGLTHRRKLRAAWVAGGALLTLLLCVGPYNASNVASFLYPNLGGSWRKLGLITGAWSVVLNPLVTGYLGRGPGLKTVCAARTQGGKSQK

Compound `CC1(C)CC(=O)C2=C(C1)NC1=C(C(=O)CC(C)(C)C1)C2c1ccc(OCc2ccc(C(=O)O)cc2)c(Br)c1` [ADD-16] returned a 50% effective concentration (EC50) in data set [1] (GPR40 agonism, n = 6) of 12.3 µM. Besides, the “agonistic activity (in words)” value in data set [1] (among the candidate compounds screened) was “highest agonistic activity”. In the data set on MIN6 cells [2] (100 μmol/L, 24 h), the “insulin secretion compared to the Con group (in words)” value was “decreased insulin secretion”. For the same compound, the “glucose-stimulated insulin secretion (in words)” value in the data set on MIN6 cells [2] (24 h, 16.7 mmol/L glucose, concentration dependent) is listed as “promote glucose-stimulated insulin secretion”. In the data set with MIN6 cells [2] (same concentrations), the “insulinotropic effect compared with TAK875 (in words)” value is “significantly better than TAK875”. Also, the “effect on MIN6 cell growth (in words)” value with MIN6 cells [3] was “inhibitory effect on MIN6 cell growth”. The “HOMA-IR (in words)” value with STZ-induced T2DM rats is given as “significantly reduced HOMA-IR values”. Besides, the “serum insulin level (in words)” value in the data set with STZ-induced T2DM rats (fasting serum) was “reduce compensatorily elevated insulin levels”. Moreover, the “insulin secretion level in insulin-resistant MIN6 cells (in words)” value with MIN6 cells [4] (PA-induced IR model, 10 μmol/L, 24 h, 2.8 and 16.7 mmol/L glucose, P<0.001) is recorded as “even higher than in Con group”. In addition, the “insulinotropic effect compared with TAK875 in insulin-resistant MIN6 cells (in words)” value in the data set on MIN6 cells [4] (same administration concentrations (10 μmol/L)) is “slightly better than TAK875”. Moreover, the “expression of insulin signaling-related molecules, Western Blot (in words)” value in the data set with ZDF rat islet tissue is “upregulate the expression of GPR40, PGC-1α, P-P38, P-EP300, PPARγ, P-AKT, PI3K, IRS1 and GLUT4”.

Usually EC50 stands for the midpoint of the concentration-response curve. Lower therefore signals greater potency.
